In patent US8143418B2, “Dimeric small molecule potentiators of apoptosis” (Board of Regents, The University of Texas System, priority 2004, dated 2012):

System: Wap-ras tumors
Assay: In vivo therapy in the WAP-RAS transgenic model
Design: species or system mice
Settings: mimetic 20 mpk po every 12 hours; Paclitaxel 5 mpk ip
Experimental: Mimetic and Paclitaxel combination efficacy is also evaluated in the Wap-ras transgenic model.
Mimetics (20 mpk/dosing po) were dissolved in 20% hydroxyl-propyl-betacyclodexatrin (Vehicle I). 0.2 ml of mimetic solution is the oral dosing volume. Paclitaxel (5 mpk/dosing ip) was dissolved in a diluted ethanol/cremophor EL solution (vehicle II) and the i.p. dosing volume for paclitaxel was 0.1 ml.
The mice are weighed, randomized, and ear-marked on Day 0. Mimetic treatment and Vehicle I treatment began on Day 1 and continued every 12 hours until Day 21. Paclitaxel and Vehicle II treatments are started on Day 4 and continued daily on Day 5, 6, and 7.

Q: `CC(=O)O[C@H]1C(=O)[C@@]2(C)[C@H]([C@H](OC(=O)c3ccccc3)[C@]3(O)C[C@H](OC(=O)[C@H](O)[C@@H](NC(=O)c4ccccc4)c4ccccc4)C(C)=C1C3(C)C)[C@]1(OC(C)=O)CO[C@@H]1C[C@@H]2O` [Paclitaxel] was tested. Which “tumor response to treatment” value did it give?
A: The value was “do not respond”.
